Assay results published in patent US20230321288A1, “RIBOFLAVIN PHOTOCHEMICAL TREATMENT (RPT)-BASED INACTIVATION METHOD OF PATHOGENS IN BIOLOGICAL LIQUID SAMPLE” (INSTITUTE OF BLOOD TRANSFUSION CHINESE ACADEMY OF MEDICAL …, priority 2020, published 2023).

Tests used:
E. coli = assay: RPT-based inactivation of E. coli in plasma, growth detected by Reed-Muench method (Example 1); assay type: cell-based, Escherichia coli; conditions: 50 μM riboflavin, 15 min, 1 W
Method: In this example, the plasma of healthy blood donors containing 50 μM of riboflavin was irradiated with LED lamp beads in a series of wavelength ranges for 15 min at an irradiation intensity of 1 W. The growth of E. coli in the blood products was then detected by a Reed-Muench method.

apheresis platelets = assay: Quality of platelet preservation after RPT (Example 2, Table 1); assay type: cell-based; conditions: for K^+ / MPV / Na^+ / PH: platelets, 50 μM riboflavin, 30 min
Method: (§1) In this example, the apheresis platelets containing 50 μM of riboflavin were separately irradiated with LED lamp beads with a wavelength of 395 nm±5 nm and fluorescent tubes with a wavelength of 309 nm to 313 nm for 30 min at irradiation intensities of 1 W (395 nm f 5 nm) and 9 W (309 nm to 313 nm), respectively. The growth of Staphylococcus aureus in the blood products was then detected by a Reed-Muench method.
The properties and component contents of the platelet samples in the three groups of experiments were compared, and the results were as follows: […]

Staphylococcus aureus = assay: RPT-based inactivation of Staphylococcus aureus in apheresis platelets, growth detected by Reed-Muench method (Example 2); assay type: cell-based; conditions: 50 μM riboflavin, 30 min
Method: as §1

With Cc1cc2nc3c(=O)[nH]c(=O)nc-3n(C[C@H](O)[C@H](O)[C@H](O)CO)c2cc1C [riboflavin] the “pathogen inactivation effect on E. coli” value (E. coli; LED 365 nm ± 5 nm) was “desirable pathogen inactivation effect”, the “pathogen inactivation effect on E. coli” value (E. coli; LED 395 nm±5 nm) was “desirable pathogen inactivation effect” and the “damage to the platelet samples” value (apheresis platelets) was “significantly less damage”. For the same compound, the “K^+” value (apheresis platelets; 309 nm to 313 nm, 9 W) was 3 mmol/L, the MPV (apheresis platelets; 309 nm to 313 nm, 9 W) was 12.1 and the “Na^+” value (apheresis platelets; 309 nm to 313 nm, 9 W) was 151 mmol/L. The PH (apheresis platelets; 309 nm to 313 nm, 9 W) was 7.26, the “K^+” value (apheresis platelets; 395 nm ± 5 nm, 1 W) was 2.7 ± 0^ mmol/L and the MPV (apheresis platelets; 395 nm ± 5 nm, 1 W) was 9.5 ± 0^. For the same compound, the “Na^+” value (apheresis platelets; 395 nm ± 5 nm, 1 W) was 153.6 ± 0.49 mmol/L, the PH (apheresis platelets; 395 nm ± 5 nm, 1 W) was 7.45 ± 0.01 and the “inactivation of S. aureus” value (Staphylococcus aureus; 309 nm to 313 nm fluorescent tubes, 9 W) was “could inactivate the S. aureus”. The “inactivation effect on S. aureus compared with 309 nm to 313 nm fluorescent tubes” value (Staphylococcus aureus; 395 nm±5 nm LED) was “better” and the “inactivation of S. aureus” value (Staphylococcus aureus; 395 nm±5 nm LED, 1 W) was “could inactivate the S. aureus”.
